Data set [1] concerns the target T1, recombinant His-tagged FLT3 kinase domain (aa 569–992) (Homo sapiens, UniProt P36888).
T1 construct: FLT3 kinase domain (aa 569–992); His; made in house; host or cells: Sf9 cells
T1 sequence (P36888 569-992): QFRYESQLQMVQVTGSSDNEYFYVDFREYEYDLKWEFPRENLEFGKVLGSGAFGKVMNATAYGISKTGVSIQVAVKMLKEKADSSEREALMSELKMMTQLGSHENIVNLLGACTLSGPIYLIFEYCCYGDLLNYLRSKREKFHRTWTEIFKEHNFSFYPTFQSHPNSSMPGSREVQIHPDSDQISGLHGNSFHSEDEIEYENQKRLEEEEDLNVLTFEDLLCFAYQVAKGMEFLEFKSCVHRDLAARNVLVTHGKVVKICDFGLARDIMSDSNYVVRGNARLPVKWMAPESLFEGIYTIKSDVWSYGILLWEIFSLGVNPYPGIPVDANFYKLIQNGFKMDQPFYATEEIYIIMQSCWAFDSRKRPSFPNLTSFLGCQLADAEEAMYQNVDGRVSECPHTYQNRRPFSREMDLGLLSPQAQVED
Briefly: ELISA-based in vitro FLT3 kinase assay. Type of data set: biochemical. The note with it: recombinant FLT3, 300 μM ATP. The procedure: (§1) In vitro kinase assays and cell viability assays were performed as described (Mologni et al., 2022).[50] Briefly, recombinant His‐tagged FLT3 kinase domain (aa 569–992) was expressed in Sf9 cells and purified by nickel ion affinity chromatography. The purified enzyme was employed in an ELISA‐based kinase assay with 300 μM ATP and a Tyr‐phosphorylatable substrate peptide, using an anti‐phosphotyrosine antibody for detection (PY20; Santa Cruz Biotech). Cell viability was determined by MTS assay using the CellTiter 96® AQueous One Solution Cell Proliferation Assay kit (Promega) according to manufacturer's instructions. Dose‐response curves were calculated by non‐linear regression (log[inhibitor] vs normalized response) using GraphPad Prism software.

The subject of data set [2] is FLT3-wild type HL60 cells. In words: Cytotoxicity by MTS assay, control cell line HL60. It is filed as cell-based. The conditions noted are these: for IC50: Homo sapiens, HL-60, read-out: HL60 (IC50, mean±SEM). The procedure: Compounds 4 a, 4 d, 4 e, 4 g and 4 q were among the best inhibitors in enzymatic assays and confirmed their activity also in cellular tests on FLT3‐driven MV‐4‐11 and on MOLM‐14 cell lines. To confirm their cellular mechanism of action, we assayed their cytotoxicity against FLT3‐wild type HL60 cells.
as §1

Data set [3] concerns MV-4-11 cells (FLT3-ITD). In words: Cell viability by MTS assay, MV-4-11 cells. It is filed as cell-based. The conditions noted are these: Homo sapiens, MV4-11, read-out: MV-4-11 (IC50, mean±SEM). Here is the method: Cellular assays were carried out on MV‐4‐11 cells, driven by the FLT3‐ITD mutation.
The purified enzyme was employed in an ELISA‐based kinase assay with 300 μM ATP and a Tyr‐phosphorylatable substrate peptide, using an anti‐phosphotyrosine antibody for detection (PY20; Santa Cruz Biotech). Cell viability was determined by MTS assay using the CellTiter 96® AQueous One Solution Cell Proliferation Assay kit (Promega) according to manufacturer's instructions. Dose‐response curves were calculated by non‐linear regression (log[inhibitor] vs normalized response) using GraphPad Prism software.

In data set [4] the test system is MOLM-14 cells (FLT3-ITD). Briefly: Cell viability by MTS assay, MOLM-14 cells. Type of data set: cell-based. The note with it: Homo sapiens, read-out: MOLM-14 (IC50, mean±SEM).
The conditions of data set [5]: cited from earlier work.
[6] abbreviates: Table 1, read-out: FLT3 Kinase Activity (IC50, mean±SEM).
The mark [7] stands for this setting: Table 3, FLT3-wild type control cell line.
Setting [8] is: Table 2, FLT3-ITD cell line, MTS viability.
Setting [9] is: Table 2, read-out: FLT3 Kinase (IC50, mean±SEM).
The mark [10] stands for this setting: Table 4, control analogues lacking boronic group.

Where two headings read alike, the source gives them in different places. A value given as a limit tells only on which side of the number the result lay.

On to `O=C(Nc1ccccc1)NC(Cc1cccc(C(=O)O)c1)B(O)O` (stereo not shown) [1 a], for which, in data set [1] (setting [6]), the IC50 – broadly, the concentration that inhibits the measured activity by half – was more than 100 µM.

As to `O=C(Cc1ccc(-c2nn[nH]n2)cc1)NCB(O)O` [1 b], the IC50 in data set [1] (setting [6]) is more than 100 µM.

Consider `Cc1onc(-c2ccccc2Cl)c1C(=O)NCB(O)O` [1 c], for which the IC50 in data set [1] (setting [6]) is more than 100 µM.

As for `O=C(Cc1cccs1)NC(B(O)O)c1ccccc1` (stereo not shown) [1 d], in data set [1] (setting [6]), the IC50 is more than 100 µM.

`O=C(NCB(O)O)c1ccc(-c2nnn[nH]2)cc1` [1 e]: the IC50 in data set [1] (setting [6]) was more than 100 µM.

Take `O=C(CSc1ccncc1)NCB(O)O` [1 f]: the IC50 in data set [1] (setting [6]) is more than 100 µM.

As for `O=C(Cc1ccc(O)c(O)c1)NCB(O)O` [1 g], the IC50 in data set [1] (setting [6]) was more than 100 µM.

With `Nc1cccc(-c2cn(CC(NC(=O)Cc3ccccc3)B(O)O)nn2)c1` (stereo not shown) [2 a], the IC50 in data set [1] (setting [6]) was more than 100 µM.

With `NC(=O)c1cn(CC(NC(=O)Cc2cccs2)B(O)O)nn1` (stereo not shown) [2 b], the IC50 in data set [1] (setting [6]) was more than 100 µM.

Turning to `Nc1nnc(SCC(=O)NC(Cn2cc(C(=O)O)nn2)B(O)O)s1` (stereo not shown) [2 c], the IC50 in data set [1] (setting [6]) is more than 100 µM.

As for `CC(=O)NC(Cn1cc(-c2ccccc2)nn1)B(O)O` (stereo not shown) [2 d], the IC50 in data set [1] (setting [6]) is more than 100 µM.

For the molecule `CC(=O)NC(Cn1cc(C(C)(C)O)nn1)B(O)O` (stereo not shown) [2 e], the IC50 in data set [1] (setting [6]) was more than 100 µM.

Regarding `O=S(=O)(Cc1ccccc1)NCB(O)O` [3 a], the IC50 in data set [1] (setting [6]) was more than 100 µM.

On to `CC(C)C(NS(=O)(=O)Cc1ccccc1)B(O)O` (stereo not shown) [3 b], for which the half-maximal inhibitory concentration (IC50) in data set [1] (setting [6]) is more than 100 µM.

As to `CC(NS(=O)(=O)Cc1ccccc1)B(O)O` (stereo not shown) [3 c], in data set [1] (setting [6]), the concentration for half-maximal inhibition (IC50) was more than 100 µM.

`Cc1ccc(S(=O)(=O)Nc2cccc(-c3cn(CB(O)O)nn3)c2)cc1` [4 a]: the IC50 is more than 100 µM in data set [2] (setting [7]), 18 ± 1 µM in data set [1] (setting [6]), 14 ± 0.2 µM in data set [3] (setting [8]) and 5.8 ± 0.7 µM in data set [4] (setting [8]).

For `NC(=O)c1cccc(-c2cn(CB(O)O)nn2)c1` [4 b], the IC50 in data set [1] (setting [6]) and in data set [3] (setting [8]) was more than 100 µM each time.

As for `O=C(O)c1cccc(-c2cn(CB(O)O)nn2)c1` [4 c], the IC50 in data set [1] (setting [6]) and in data set [3] (setting [8]) was more than 100 µM throughout.

Turning to `Cc1cccc(-c2cn(CB(O)O)nn2)c1` [4 d], the IC50 came out at 32 ± 4 µM in data set [2] (setting [7]), 25 ± 2 µM in data set [1] (setting [6]), 11 ± 1 µM in data set [3] (setting [8]) and 3 ± 0.5 µM in data set [4] (setting [8]). Also, the “HL60 (IC50, mean±SEM)” value in data set [2] (setting [7]) is recorded as “moderate inhibition of HL60”.

Take `Nc1cccc(-c2cn(CB(O)O)nn2)c1` [4 e]: the IC50 in data set [2] (setting [7]) was more than 100 µM; in data set [1] (setting [6]), 6.7 ± 1.7 µM; in data set [3] (setting [8]) it was 14 ± 3 µM; in data set [4] (setting [8]), 11 ± 1 µM.

`NS(=O)(=O)c1cccc(-c2cn(CB(O)O)nn2)c1` [4 f]: the IC50 in data set [1] (setting [6]) and in data set [3] (setting [8]) was more than 100 µM each time.

Consider `OB(O)Cn1cc(-c2cccc(Cl)c2)nn1` [4 g], for which the IC50 was 15 ± 1 µM in data set [2] (setting [7]), 18 ± 5 µM in data set [1] (setting [6]), 2.7 ± 0.9 µM in data set [3] (setting [8]) and 0.68 ± 0.08 µM in data set [4] (setting [8]). The “HL60 (IC50, mean±SEM)” value in data set [2] (setting [7]) was “moderate inhibition of HL60”.

For `OB(O)Cn1cc(-c2cnccn2)nn1` [4 h], the IC50 in data set [1] (setting [9]) and in data set [3] (setting [8]) was more than 100 µM each time.

Regarding `OB(O)Cn1cc(-c2cccnc2)nn1` [4 i], the half-inhibitory concentration (IC50) in data set [1] (setting [9]) and in data set [3] (setting [8]) was more than 100 µM in each case.

Take `OB(O)Cn1cc(-c2cccs2)nn1` [4 j]: the IC50 in data set [1] (setting [9]) was 76 ± 13 µM; in data set [3] (setting [8]), 100 µM; in data set [4] (setting [8]), 11 ± 2 µM.

With `O=S(=O)(CC(F)(F)F)NCc1cn(CB(O)O)nn1` [4 k], the values for the 50% inhibitory concentration (IC50) in data set [1] (setting [9]) and in data set [3] (setting [8]) were 5.8 ± 0.9 µM and more than 100 µM, respectively.

As for `O=S(=O)(NCc1cn(CB(O)O)nn1)c1cccs1` [4 l], the IC50 in data set [1] (setting [9]) was 25 ± 5 µM; in data set [3] (setting [8]), more than 100 µM.

Regarding `COC(=O)c1ccc(CS(=O)(=O)NCc2cn(CB(O)O)nn2)cc1` [4 m], the IC50 in data set [1] (setting [9]) and in data set [3] (setting [8]) was more than 100 µM in each case.

Turning to `O=C(O)c1cccc(CS(=O)(=O)NCc2cn(CB(O)O)nn2)c1` [4 n], the IC50 in data set [1] (setting [9]) and in data set [3] (setting [8]) was more than 100 µM in each case.

Consider `COC(=O)c1cccc(CS(=O)(=O)NCc2cn(CB(O)O)nn2)c1` [4 o], for which the IC50 in data set [1] (setting [9]) is 65 ± 11 µM; in data set [3] (setting [8]), more than 100 µM.

Consider `CS(=O)(=O)NCc1cn(CB(O)O)nn1` [4 p], for which the 50% inhibitory concentration (IC50) was 42 ± 5 µM in data set [1] (setting [9]) and more than 100 µM in data set [3] (setting [8]).

Take `Cc1ccc(S(=O)(=O)Nc2cccc(OCc3cn(CB(O)O)nn3)c2)cc1` [4 q]: the IC50 is more than 100 µM in data set [2] (setting [7]), 18 ± 3 µM in data set [1] (setting [9]), 10 ± 1 µM in data set [3] (setting [8]) and 4.3 ± 0.5 µM in data set [4] (setting [8]).

Turning to `OB(O)Cn1cc(COc2ccccc2)nn1` [4 r], the “FLT3 Kinase (IC50, mean±SEM)” value in data set [1] (Table 2) is given as “do not inhibit FLT3”. The IC50 was more than 100 µM in data set [1] (setting [9]), 1.1 ± 0.1 µM in data set [3] (setting [8]) and 0.16 ± 0.01 µM in data set [4] (setting [8]).

As to `O=C(NCc1cn(CB(O)O)nn1)c1ccccc1` [4 t], the IC50 was 3.2 ± 0.4 µM in data set [1] (setting [9]) and more than 100 µM in data set [3] (setting [8]).

With `OB(O)Cn1cc(CNc2ccccc2)nn1` [4 u], the “FLT3 Kinase (IC50, mean±SEM)” value in data set [1] (Table 2) was “lose enzymatic activity”. Also, the IC50 in data set [1] (setting [9]) was more than 100 µM; in data set [3] (setting [8]), 7.6 ± 3.9 µM; in data set [4] (setting [8]), 8.7 ± 1.4 µM.

In the case of `O=C(NCc1cn(CB(O)O)nn1)C(F)(F)F` [4 v], the “FLT3 Kinase (IC50, mean±SEM)” value in data set [1] (Table 2) is recorded as “lose enzymatic activity”. The IC50 in data set [1] (setting [9]) and in data set [3] (setting [8]) was more than 100 µM in each case.

Consider `O=C(OCc1cn(CB(O)O)nn1)c1ccccc1` [4 w], for which, in data set [1] (Table 2), the “FLT3 Kinase (IC50, mean±SEM)” value is recorded as “do not inhibit FLT3”. The IC50 was more than 100 µM in data set [1] (setting [9]), 1.4 ± 0.3 µM in data set [3] (setting [8]) and 0.35 ± 0.01 µM in data set [4] (setting [8]).

As to `Nc1ccc(-c2cn(CC(=O)O)nn2)cc1` [5 e, 2‐(4‐(4‐aminophenyl)‐1H‐1,2,3‐triazol‐1‐yl)acetic acid], the IC50 in data set [2] (setting [10]), in data set [3] (setting [10]) and in data set [4] (setting [10]) was more than 100 µM each time.

For `CCCCn1cc(-c2ccc(N)cc2)nn1` [6 e, 4‐(1‐butyl‐1H‐1,2,3‐triazol‐4‐yl)aniline], the IC50 in data set [2] (setting [10]), in data set [3] (setting [10]) and in data set [4] (setting [10]) was more than 100 µM throughout.

`[Cl-].[Na+]` [NaCl]: the LD50 (as a rule, the dose expected to kill half of the subjects tested) in data set [5] was 3000 mg/kg.

On to `Cc1ccc(C(=O)Nc2ccc(CN3CCN(C)CC3)c(C(F)(F)F)c2)cc1C#Cc1cnc2cccnn12` [ponatinib, reference compound], for which the IC50 in data set [3] (setting [8]) was 0.007 ± 0.002 µM; in data set [4] (setting [8]), 0.001 ± 0.0001 µM.

The values above are taken from PMC11694611, “α‐Triazolylboronic Acids: A Novel Scaffold to Target FLT3 in AML” (Chemmedchem, 2024).
